Results on 3 compounds are retold here after ChEMBL document CHEMBL4316654, “Prenylated Acylphloroglucinols from Hypericum faberi” (J Nat Prod, 2019).

Broadly, the pIC50 is the negative decadic logarithm of the IC50, by convention in mol/L. A lower pIC50 goes with a large IC50.

pIC50: −log10 of the molar value.

What all share (type): functional, cell-based
Experiment [1] deals with PANC-1. Nature of the experiment: Cytotoxicity against human PANC1 cells incubated for 48 hrs by MTT assay. To be noted: PANC-1, 48 h. For orientation: Formazan colour is commonly taken as a measure of viable cells.
In experiment [2] the test system is ECa-109 cell line. Nature of the experiment: Cytotoxicity against human ECA109 cells incubated for 48 hrs by MTT assay. To be noted: ECa-109, 48 h.
A short description of experiment [3]: Cytotoxicity against human BIU87 cells incubated for 48 hrs by MTT assay. To be noted: BIU87, 48 h.

In turn, `CCC(C)C(=O)c1c(O)c(C/C=C(\C)CCC=C(C)C)c(O)c2cc(-c3ccccc3)oc12` (stereo not given) gave a pIC50 in experiment [1] of 5.21.

In experiment [1], `CC(C)=CCC/C(C)=C/Cc1c(O)c(C(=O)C(C)C)c2oc(-c3ccc(O)cc3)cc2c1O` gave a pIC50 of 5.05.

As for `CC(=O)O[C@H]1C(=O)[C@@]2(C)[C@H]([C@H](OC(=O)c3ccccc3)[C@]3(O)C[C@H](OC(=O)[C@H](O)[C@@H](NC(=O)c4ccccc4)c4ccccc4)C(C)=C1C3(C)C)[C@]1(OC(C)=O)CO[C@@H]1C[C@@H]2O` [PACLITAXEL], the pIC50 in experiment [2] was 5.92; in experiment [3], 5.68; in experiment [1] it was 5.46.
